The values that follow come from a melting point compilation (Tetko et al.; mined from patent text by program, amines drawn as free bases though some values may be those of a salt).

In the case of `COc1ccccc1CNc1cc(C(=O)Nc2ccccc2)ccc1OC`, the melting point (commonly the temperature of the solid-liquid transition) lay within 177 to 179 °C.
In turn, `Cc1ccc(C23CCN(C)CC2O3)cc1` (stereo not drawn) came in with a melting point of 46 to 50 °C.
The value for `OCc1cc(-c2ccccc2)cs1` was 112 to 113 °C; that for `CCCCCCCCCCN(O)C(=O)NCCC(=O)OC` was 77 to 78 °C.
With `CC(C)OC(=O)c1cc(-n2c(=O)[nH]c3c(c2=O)CSC3)c(F)cc1Cl`, the melting point is 180 to 183 °C.
As for `CC[Si](CC)(CC)c1cccc(-c2ccccc2)c1O`, the melting point is 44 to 46 °C.
In turn, `N#CN=c1ccccn1C1=CC(CF)(CF)Oc2ccc([N+](=O)[O-])cc21` yielded a melting point of 238 to 240 °C.
`CN(C(=O)Oc1ccc(Cl)c(C(C)(C)C)c1)c1cccc(Cl)c1` registered a melting point of 65 to 67 °C.
Then `O=C(O)CCCCc1nc2c(F)c(F)cc(F)c2s1`, with 122 to 124 °C; and `Cc1cc(NS(=O)(=O)c2ccc(S(C)(=O)=O)cc2)cc(C)c1S(=O)(=O)C[N+](=O)[O-]`, with 192 to 194 °C.
In turn, `CC(=O)NC(NNc1ccccc1)C(=O)NCc1ccccc1` (stereo not drawn) yielded a melting point of 132 to 134 °C.
`CC(C)CC(=O)Nc1c(C(=O)c2cccc(Cl)c2)[nH]c2cc(Cl)ccc12` came in with a melting point of 185 to 186 °C.
Take `COc1ccc(-c2cc(C=O)cc3ccoc23)cc1`: the melting point fell in the range of 79 to 80 °C.
In the case of `O=C1C[C@@H](COS(=O)(=O)c2ccccc2)N1`, the melting point was in the range of 102 to 105 °C.
`Cc1cc(C)nc(NC(=O)Cc2ccsc2Br)c1`: the melting point turned out to be 72 °C.
The compound `Cc1ccc(O)c(-c2nc(N(C)C)sc2C(c2ccc(N(C)C)cc2)c2ccc(N(C)C)cc2)c1` registered a melting point of 189 to 191 °C.
In turn, `CC=C1CC2C3CCc4cc(OC)ccc4C3CCC2(CC)C1=O` (stereo not drawn) yielded a melting point of 155 to 157 °C.
Then `COc1ccc(-c2cnc3cc4cnn(Cc5ccccc5)c4cc3n2)cc1F`, with 149 to 155 °C.
In turn, `CC(C)(C)OC(=O)c1ncn2c1CN(C(=O)N1CCCC1)c1c(F)cccc1-2` had a melting point of 214 °C.
The value for `CN1C(O)=C(C(=O)Nc2ccccc2Cl)c2ccsc2S1(=O)=O` was 168 to 170 °C; that for `CC(C)(C)c1cc(-c2n[nH]c3ncccc23)cc(C(C)(C)C)c1O` was 216 to 217 °C.
In turn, `Cc1cc(F)ccc1[C@@H]1CN(C2=CC(=O)CC2)CC[C@H]1C(=O)N(C)Cc1cc(C(F)(F)F)cc(C(F)(F)F)c1` (relative stereo) had a melting point of 192 to 193 °C.
Regarding `CC(C)(C)OC(=O)N1CCN(C(=O)c2cccs2)CC1`, the melting point was 76 °C.
Then `Cc1nc(-c2ccc(C(=O)N3Cc4cccn4Cc4ccccc43)cc2)n(C)n1`, with 193 to 195 °C; and `O=C(O)C1=Cc2ccc3ccccc3c2OC1C(F)(F)F` (stereo not drawn), with 246 to 249 °C.
`CS(=O)(=O)OCc1cc(-c2ccc3c(c2)CCO3)nn(Cc2ccccc2Cl)c1=O` registered a melting point of 118 to 119 °C.
Then `Cc1cc(N)c([N+](=O)[O-])cc1OC(F)F`, with 73 to 74 °C; and `COc1ccc2oc(=O)c(-c3ccccc3)c(OCCN3CCOCC3)c2c1`, with 118 °C; and `CC(C)C(NC(=O)OCc1ccccc1)C(=O)NC(Cc1ccccc1)C(O)C(Cc1ccccc1)NC(=O)C(NC(=O)N1CCN(C)CC1)C(C)C` (stereo not drawn), with 175 to 176 °C.
`CNC(=Nc1ccccc1N1CCCCC1)C(C)(C)C` registered a melting point of 78 °C.
`CCOc1c(Cl)cc(C(C)(C)N2CC(C)=C(c3ccccc3)C2=O)cc1Cl` showed a melting point of 133 to 135 °C.
In the case of `COc1ccc(CNc2nc(SC)ncc2CO)cc1Cl`, the melting point fell in the range of 159 to 160 °C.
`COc1ccc(F)cc1C(C)(C)CC(O)(Cc1ccc(C(C)=NO)cc1Cl)C(F)(F)F` (stereo not drawn) returned a melting point of 136 to 138 °C.
As to `c1ccc2c(c1)NC(C1CCCCC1)c1cccc3c1N2CC3` (stereo not drawn), the melting point was in the range of 136 to 138 °C.
As for `Cc1nc2nccc(Cl)c2cc1Br`, the melting point lay in the range of 160 to 164 °C.
In the case of `CC(C)CCCC(C)C1CCC2C3CC=C4CC(N=[N+]=[N-])CCC4(C)C3CCC12C` (stereo not drawn), the melting point lay within 84 to 86 °C.
The value for `CC(C)OP(=O)(CC1(C(=O)O)CCCC1)OC(C)C` was 53 to 57 °C; that for `Cc1ccc(Oc2ccc(-c3noc(=O)[nH]3)cc2)c(O)c1` was 195 to 198 °C.
As to `C1=CC(c2ccccc2)Nc2ccccc21` (stereo not drawn), the melting point came out at 75 °C.
Regarding `CS(=O)(=O)c1cccc(Nc2cc(-c3ccc(C(F)(F)F)cc3)ncn2)c1`, the melting point was in the range of 204 to 205 °C.
Consider `O=C(Cl)c1cnc(Cl)nc1-c1ccccc1`, for which the melting point was found to be 42 °C.
`CC(=O)SC(CC(=O)c1ccccc1C)C(=O)O` (stereo not drawn): the melting point is 106 to 108 °C.
Take `CN(C)C(CNc1c(C#N)cnn2cccc12)c1ccco1` (stereo not drawn): the melting point came to 107 °C.
The compound `N#CCc1coc2ccc(Br)cc12` had a melting point of 120 °C.
`Cc1cnc(CCNC(=O)c2ccccc2NC(=O)c2cccc(C(F)(F)F)c2)[nH]1` displayed a melting point of 168 to 172 °C.
The compound `CC1(C)COC(=O)N1c1nc(-c2sc(C#N)cc2Br)cs1` showed a melting point of 230 to 234 °C.
In turn, `COc1nn(-c2ccc(C=O)c(Cl)c2)nc1Cl` yielded a melting point of 85 to 87 °C.
`Fc1cccc(-c2ccc(Cl)nn2)c1` displayed a melting point of 133 to 135 °C.
Take `CC1CN(c2c(F)c(N)c3c(=O)c(C(=O)O)cn(C4CC4)c3c2OC(F)F)CCN1` (stereo not drawn): the melting point was in the range of 283 to 286 °C.
In turn, `CCCOC(=O)C1=C(C)NC(C)=C(C(=O)N[C@H](C(=O)OCC)C(C)C)[C@@H]1c1cccc([N+](=O)[O-])c1` came in with a melting point of 119 to 121 °C.
`Cc1ccc2nc([C@@H](C)NC(=O)OC(C)(C)C)sc2c1` displayed a melting point of 101 to 104 °C.
`COc1cc(N(C)C)ccc1-c1nc2c(N[C@H]3[C@@H](C(N)=O)[C@@H]4C=C[C@H]3C4)c(Br)cnc2[nH]1` returned a melting point of 218 to 220 °C.
`C#Cc1ccc2c(c1)C(=O)CC(C)(C)S2`: the melting point lay within 63 to 66 °C.
`CCCc1nc2c(N)nc(C)c(C)c2n1CCCCCS(=O)(=O)c1ccc(C(F)(F)F)cc1` yielded a melting point of 172 to 174 °C.
The value for `CC(C)(C)OC(=O)CNC(=O)OCC1c2c(c3ccccc3c3ccccc23)-c2c1c1ccccc1c1ccccc21` was 170 to 171 °C; that for `O=C(Nc1cccc2c1C(=O)N(CC(=O)N1CCC(CO)CC1)C2=O)c1ccc(Cl)s1` was 198 °C; that for `CC(=O)O[C@H]1CC[C@H]2[C@@H]3CCc4cc(O)ccc4[C@H]3[C@@H](CCCCCCCCCS(=O)(=O)CCCC(F)(F)C(F)(F)F)C[C@]12C` was 130 °C.
Take `CCc1nc2c(n1Cc1ccc(OC)cc1)C(=O)N(C)CN2c1ccc(Cl)cc1Cl`: the melting point lay in the range of 116 to 118 °C.
The value for `CCN(CC)C/C=C/c1ccc2c(Nc3ccc(Sc4nccn4C)c(Cl)c3)c(C#N)cnc2c1` was 223 to 228 °C.
As to `O=C(O)CN=C(O)c1ccc(C(O)=NCC(=O)O)c2c(C(=O)O)ccc(C(=O)O)c12`, the melting point was > 300 °C.
`COc1c(C)cc2c(c1C)Cc1c-2[nH]c2ccc(C(C)C)cc12` gave a melting point of 130 °C.
On to `Cn1c(Oc2ccc(N=C=S)cc2)nc2ccccc21`, for which the melting point fell in the range of 59 to 61 °C.
The value for `Cc1cc(C#N)sc1Br` was 40 to 42 °C; that for `CCCN(Cc1ccc(-c2ccccc2-c2nnn[nH]2)cc1)c1nc(OCc2ccccc2)ccc1C(=O)O` was 68 to 82 °C.
In turn, `CN(C)C=C1CCN(c2ccccc2)c2ccccc2C1=O` yielded a melting point of 131 to 133 °C.
As to `COc1cc(/C=C/C(=O)CC(=O)c2ccc(I)cc2)ccc1O`, the melting point fell in the range of 139 to 141 °C.
The value for `O[C@@H]1CNCC[C@H]1NCc1ccccc1` (relative stereo) was 136 °C.
On to `CC(=O)SCC(C)C(=O)N(CC(=O)O)C1CCCCCC1` (stereo not drawn), for which the melting point was 116 to 117 °C.
The value for `O=C(c1ccn(S(=O)(=O)c2ccccc2)c1)c1ccc(Cl)cc1Cl` was 122 °C; that for `CC(C)(C)COC(=O)Cc1cccc2c(=O)cc(C3=CCCCC3)oc12` was 138 to 139 °C.
In the case of `CCOc1ccc2c(c1)n(C1CCCCC1)c(=O)n2S(=O)(=O)c1ccc(C(=O)Nc2ccccc2C)cc1OC`, the melting point is 179 °C.
The compound `CC1C2=C(CN=C(c3ccccc3Cl)c3cc(Cl)ccc32)C(=O)N1CC(N)=O` (stereo not drawn) came in with a melting point of 221 to 222 °C.
The compound `Cn1cc(SCc2ccccc2)c(=O)c(-c2ccccc2)c1` came in with a melting point of 155 to 157 °C.
`C[C@@H](n1cnc2cc(Oc3ccc(Cl)cc3)ccc2c1=O)[C@](O)(Cn1cncn1)c1ccc(F)cc1F` showed a melting point of 198 to 199 °C.
The value for `Cc1ccc(C)c(C(CCC(=O)O)Oc2cc(OCc3ccsc3)ccc2C#N)c1` (racemic) was 135 to 136 °C.
`CC(C)(Oc1cccc(C(=O)c2ccc(Cl)cc2)c1)C(=O)O` had a melting point of 144 °C.
`COc1ccc(N(C)CC(=O)O)c(C(=O)O)c1` yielded a melting point of 196 °C.
With `Cc1cc(C)c(C2C(=O)N(N(C)C)C3(CCN(N(C)C)CC3)C2=O)c(C)c1` (stereo not drawn), the melting point lay in the range of 80 to 85 °C.
On to `O=Cc1nn(-c2ccc([N+](=O)[O-])cc2)c2c1CCCC2`, for which the melting point lay in the range of 147 to 148 °C.
Compound `CCOC(=O)C=Cc1ccc(NC(=O)Nc2cccnc2)cc1` registered a melting point of 188 to 189 °C.
In the case of `N#CC1(c2ccc(NC(=O)c3ccc4c(c3)OCCO4)cc2)CCCC1`, the melting point was in the range of 164 to 167 °C.
Then `CS(=O)(=O)Nc1ccc(C(=O)Cc2ccccc2)cc1Sc1ccc(F)cc1F`, with 120 to 122 °C; and `O=c1ccc(-c2ccsc2)n[nH]1`, with 169 to 171 °C.
`CCOC(=O)CN(C=C(C(=O)OCC)C(=O)OCC)N=Cc1ccccc1` came in with a melting point of 105 to 106 °C.
On to `CCC1=CC(=O)c2ccccc2C1=O`, for which the melting point was 87 to 88 °C.
On to `CCCCCN1C(=O)C(CO)(c2cc3c(cc2O)OCO3)c2ccccc21` (stereo not drawn), for which the melting point is 125 to 127 °C.
As to `CCOC(OCC)C(=O)OCc1c(-c2cnccn2)ssc1=O`, the melting point was 74 to 76 °C.
Compound `CC(=O)N1CCC(Oc2c(F)c(F)c(F)c(F)c2F)CC1` returned a melting point of 60 to 65 °C.
